Data from patent US20120220581A1, “IMIDAZO[1,2-b]PYRIDAZINE DERIVATIVES AND THEIR USE AS PDE10 INHIBITORS” (Janssen-Cilag, S.A., priority 2009, published 2012).
Where two headings read alike, the source gives them in different places.

Legend:
PDE4D3 = PDE4D3 (Homo sapiens, UniProt Q08499); assay: In vitro PDE selectivity assay (SPA), PDE4D3; type: biochemical; settings: hPDE4D3; read-out: PDE 4D3 (expressed as pIC50) (converted)
Method in brief: (§1)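 Inhibition of each PDE isoform was measured by scintillation proximity assay with ³H-cyclic nucleotide substrate, using incubation buffer, substrate concentration, incubation time and stop solution adapted per isoform. Compounds were tested in dose-response against 1% DMSO controls and enzyme-free blanks. IC50 came from a least-squares fit of blank-subtracted % of control versus concentration.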

[1] = target: other members of the PDE family (Homo sapiens, UniProt O00408); assay: In vitro PDE selectivity assay (SPA), other members of the PDE family (protocols in Table A); type: biochemical; settings: hPDE2A; read-out: PDE 2A (expressed as pIC50) (converted)
Chain of other members of the PDE family (Homo sapiens, UniProt O00408) (O00408 whole entry): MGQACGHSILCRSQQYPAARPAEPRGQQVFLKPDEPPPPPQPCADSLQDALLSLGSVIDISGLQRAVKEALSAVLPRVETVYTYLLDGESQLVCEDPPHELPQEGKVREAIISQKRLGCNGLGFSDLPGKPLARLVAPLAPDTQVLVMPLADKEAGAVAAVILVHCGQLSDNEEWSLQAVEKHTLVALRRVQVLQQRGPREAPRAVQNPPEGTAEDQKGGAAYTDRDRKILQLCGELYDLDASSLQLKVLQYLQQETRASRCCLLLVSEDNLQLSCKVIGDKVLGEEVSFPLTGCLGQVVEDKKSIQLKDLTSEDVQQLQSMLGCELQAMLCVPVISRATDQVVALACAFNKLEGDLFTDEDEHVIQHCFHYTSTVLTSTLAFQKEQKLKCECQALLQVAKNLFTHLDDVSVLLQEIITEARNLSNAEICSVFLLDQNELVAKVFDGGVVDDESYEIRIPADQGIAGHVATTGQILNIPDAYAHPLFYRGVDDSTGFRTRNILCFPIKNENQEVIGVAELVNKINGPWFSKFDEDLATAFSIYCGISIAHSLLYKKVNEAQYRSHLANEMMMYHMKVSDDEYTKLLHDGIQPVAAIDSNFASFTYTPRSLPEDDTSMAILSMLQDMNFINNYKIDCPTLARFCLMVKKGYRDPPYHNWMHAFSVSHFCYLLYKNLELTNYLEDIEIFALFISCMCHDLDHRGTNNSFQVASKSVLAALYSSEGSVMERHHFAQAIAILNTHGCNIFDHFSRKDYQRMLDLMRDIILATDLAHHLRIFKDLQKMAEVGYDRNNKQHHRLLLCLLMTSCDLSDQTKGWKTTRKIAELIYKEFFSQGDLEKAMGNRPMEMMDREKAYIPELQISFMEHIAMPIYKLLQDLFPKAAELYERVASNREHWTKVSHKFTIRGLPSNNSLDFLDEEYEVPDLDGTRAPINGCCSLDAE
Method in brief: as §1

[2] = target: other members of the PDE family (Homo sapiens, UniProt O76083); assay: as above; type: biochemical; settings: hPDE9A; read-out: PDE 9A (expressed as pIC50) (converted)
Chain of other members of the PDE family (Homo sapiens, UniProt O76083) (O76083 whole entry): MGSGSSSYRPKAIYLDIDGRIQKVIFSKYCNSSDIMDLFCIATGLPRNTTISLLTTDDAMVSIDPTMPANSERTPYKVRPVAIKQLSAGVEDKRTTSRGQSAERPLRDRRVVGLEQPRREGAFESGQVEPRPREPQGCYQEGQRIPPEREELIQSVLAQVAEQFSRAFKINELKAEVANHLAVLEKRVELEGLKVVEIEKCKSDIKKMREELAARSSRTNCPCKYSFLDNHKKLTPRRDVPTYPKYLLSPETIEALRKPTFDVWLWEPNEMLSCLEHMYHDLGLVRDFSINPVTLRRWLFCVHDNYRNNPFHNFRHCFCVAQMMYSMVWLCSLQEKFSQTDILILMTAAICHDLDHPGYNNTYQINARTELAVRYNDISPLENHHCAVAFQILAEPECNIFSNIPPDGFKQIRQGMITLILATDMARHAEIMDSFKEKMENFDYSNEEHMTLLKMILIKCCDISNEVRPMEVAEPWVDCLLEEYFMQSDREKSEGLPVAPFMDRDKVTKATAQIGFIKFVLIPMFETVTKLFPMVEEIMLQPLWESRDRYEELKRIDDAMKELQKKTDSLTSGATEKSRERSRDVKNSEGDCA
Method in brief: as §1

[3] = target: other members of the PDE family (Homo sapiens, UniProt Q13946); assay: as above; type: biochemical; settings: hPDE7A1; read-out: PDE 7A (expressed as pIC50) (converted)
Chain of other members of the PDE family (Homo sapiens, UniProt Q13946) (Q13946 whole entry): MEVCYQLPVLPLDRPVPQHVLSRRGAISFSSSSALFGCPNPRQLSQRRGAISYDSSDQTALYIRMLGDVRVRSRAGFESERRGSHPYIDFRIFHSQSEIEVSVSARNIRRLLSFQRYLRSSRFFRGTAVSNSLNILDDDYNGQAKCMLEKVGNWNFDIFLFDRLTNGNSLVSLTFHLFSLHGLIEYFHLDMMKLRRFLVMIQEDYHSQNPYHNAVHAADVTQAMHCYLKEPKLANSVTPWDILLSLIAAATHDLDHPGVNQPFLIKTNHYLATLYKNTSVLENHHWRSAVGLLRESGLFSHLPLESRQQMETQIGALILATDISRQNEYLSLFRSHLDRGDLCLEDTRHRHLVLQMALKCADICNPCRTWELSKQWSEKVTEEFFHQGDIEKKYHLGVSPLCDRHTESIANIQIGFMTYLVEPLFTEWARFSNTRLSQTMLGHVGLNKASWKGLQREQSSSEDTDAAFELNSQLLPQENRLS
Method in brief: as §1

[4] = target: other members of the PDE family (Homo sapiens, UniProt Q14432); assay: as above; type: biochemical; settings: hPDE3A; read-out: PDE 3A (expressed as pIC50) (converted)
Chain of other members of the PDE family (Homo sapiens, UniProt Q14432) (Q14432 whole entry): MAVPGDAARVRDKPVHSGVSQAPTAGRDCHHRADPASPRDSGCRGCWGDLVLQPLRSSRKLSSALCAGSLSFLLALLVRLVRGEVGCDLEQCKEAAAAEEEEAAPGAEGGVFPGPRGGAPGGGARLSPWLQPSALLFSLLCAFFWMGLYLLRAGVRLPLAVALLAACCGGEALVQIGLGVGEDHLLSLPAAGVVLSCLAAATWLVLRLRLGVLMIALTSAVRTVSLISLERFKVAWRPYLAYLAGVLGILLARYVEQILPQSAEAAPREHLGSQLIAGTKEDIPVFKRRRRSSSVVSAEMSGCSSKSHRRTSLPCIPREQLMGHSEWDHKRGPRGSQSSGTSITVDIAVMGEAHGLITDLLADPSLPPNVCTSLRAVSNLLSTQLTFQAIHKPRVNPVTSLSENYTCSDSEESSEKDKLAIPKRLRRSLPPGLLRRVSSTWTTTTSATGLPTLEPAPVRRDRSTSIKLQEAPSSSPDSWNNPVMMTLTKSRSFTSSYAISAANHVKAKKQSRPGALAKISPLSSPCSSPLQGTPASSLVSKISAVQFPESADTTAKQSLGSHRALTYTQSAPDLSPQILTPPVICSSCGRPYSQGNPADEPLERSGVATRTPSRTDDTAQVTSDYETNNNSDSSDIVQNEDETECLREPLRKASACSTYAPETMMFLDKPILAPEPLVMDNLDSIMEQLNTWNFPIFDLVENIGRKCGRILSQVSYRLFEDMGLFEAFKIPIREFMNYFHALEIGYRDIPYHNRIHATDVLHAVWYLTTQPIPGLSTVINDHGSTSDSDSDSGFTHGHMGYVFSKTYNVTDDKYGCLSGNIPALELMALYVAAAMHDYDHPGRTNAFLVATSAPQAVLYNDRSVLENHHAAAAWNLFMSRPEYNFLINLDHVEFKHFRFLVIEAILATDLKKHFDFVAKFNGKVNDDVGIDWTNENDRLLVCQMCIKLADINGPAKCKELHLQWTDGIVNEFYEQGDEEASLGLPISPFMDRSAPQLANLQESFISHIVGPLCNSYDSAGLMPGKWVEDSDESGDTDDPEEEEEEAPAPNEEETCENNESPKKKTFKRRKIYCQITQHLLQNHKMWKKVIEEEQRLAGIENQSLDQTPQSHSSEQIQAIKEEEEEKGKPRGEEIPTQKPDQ
Method in brief: as §1

[5] = target: other members of the PDE family (Homo sapiens, UniProt Q9HCR9); assay: as above; type: biochemical; settings: hPDE11A4; read-out: PDE 11A4 (expressed as pIC50) (converted)
Chain of other members of the PDE family (Homo sapiens, UniProt Q9HCR9) (Q9HCR9 whole entry): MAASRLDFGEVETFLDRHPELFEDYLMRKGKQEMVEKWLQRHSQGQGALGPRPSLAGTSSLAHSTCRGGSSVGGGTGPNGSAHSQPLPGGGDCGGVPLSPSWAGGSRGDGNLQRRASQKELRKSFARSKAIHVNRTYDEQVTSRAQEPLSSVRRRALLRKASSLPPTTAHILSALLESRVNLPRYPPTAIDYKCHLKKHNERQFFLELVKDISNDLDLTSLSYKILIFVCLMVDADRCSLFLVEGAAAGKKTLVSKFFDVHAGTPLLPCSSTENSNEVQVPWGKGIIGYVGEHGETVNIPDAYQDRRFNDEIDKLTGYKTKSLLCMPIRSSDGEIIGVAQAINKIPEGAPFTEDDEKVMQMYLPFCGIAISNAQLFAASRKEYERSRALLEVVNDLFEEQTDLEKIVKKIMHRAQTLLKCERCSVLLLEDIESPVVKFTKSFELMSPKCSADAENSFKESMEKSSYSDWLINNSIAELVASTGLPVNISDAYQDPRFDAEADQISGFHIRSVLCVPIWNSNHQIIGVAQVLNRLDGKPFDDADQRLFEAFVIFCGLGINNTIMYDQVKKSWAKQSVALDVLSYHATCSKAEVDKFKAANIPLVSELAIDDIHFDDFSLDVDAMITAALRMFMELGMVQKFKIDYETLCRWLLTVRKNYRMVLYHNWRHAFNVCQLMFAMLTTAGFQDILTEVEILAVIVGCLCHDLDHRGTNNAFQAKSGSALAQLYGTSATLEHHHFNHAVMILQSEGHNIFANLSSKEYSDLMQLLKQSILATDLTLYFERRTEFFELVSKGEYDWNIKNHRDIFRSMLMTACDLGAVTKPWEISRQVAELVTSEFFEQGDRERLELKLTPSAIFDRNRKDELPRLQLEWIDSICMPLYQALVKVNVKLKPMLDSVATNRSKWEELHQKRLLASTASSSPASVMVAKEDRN
Method in brief: as §1

PDE10 = target: T1, PDE10 (Rattus norvegicus, UniProt Q9QYJ6); assay: PDE10 occupancy ([3H]-MP-10, striatum); type: in vivo; settings: rat; for ED50: dose response; for receptor occupancy at 10 mg/kg: single dose 10 mg/kg, subcutaneous, read-out: SD sc % occupancy at 10 mg/kg
T1 construct: from tissue; host or cells: rat brain sections, striatum (in vivo dosing, ex vivo autoradiography)
T1 sequence (Q9QYJ6 1-794): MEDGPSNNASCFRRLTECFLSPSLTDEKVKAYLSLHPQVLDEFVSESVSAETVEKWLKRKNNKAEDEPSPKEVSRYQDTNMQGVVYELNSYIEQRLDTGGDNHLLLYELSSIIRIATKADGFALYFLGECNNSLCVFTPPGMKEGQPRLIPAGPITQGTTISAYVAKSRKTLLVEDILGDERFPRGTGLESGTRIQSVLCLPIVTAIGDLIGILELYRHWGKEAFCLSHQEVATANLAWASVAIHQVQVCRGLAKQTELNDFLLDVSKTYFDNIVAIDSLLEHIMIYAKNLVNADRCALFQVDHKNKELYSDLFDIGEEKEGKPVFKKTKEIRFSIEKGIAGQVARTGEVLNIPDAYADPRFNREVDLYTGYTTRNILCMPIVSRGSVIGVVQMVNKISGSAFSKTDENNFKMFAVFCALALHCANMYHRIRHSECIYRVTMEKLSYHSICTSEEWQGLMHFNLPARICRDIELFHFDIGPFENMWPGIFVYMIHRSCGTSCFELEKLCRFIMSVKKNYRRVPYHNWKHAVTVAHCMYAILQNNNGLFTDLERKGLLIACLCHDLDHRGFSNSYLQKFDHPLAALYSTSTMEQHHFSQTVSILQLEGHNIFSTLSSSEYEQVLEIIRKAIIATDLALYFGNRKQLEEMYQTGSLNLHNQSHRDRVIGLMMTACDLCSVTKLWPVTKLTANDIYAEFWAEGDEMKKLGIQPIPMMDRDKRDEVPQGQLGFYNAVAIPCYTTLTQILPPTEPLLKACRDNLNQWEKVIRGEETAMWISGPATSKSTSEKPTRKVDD
Method in brief: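 Male Wistar rats (200 g) dosed s.c. or p.o.; occupancy measured 1 h post-dose. [^3H]-MP-10 (10 μCi/animal) given i.v. 30 min before sacrifice.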

[6] = sc, subcutaneous administration, read-out: PDE10 in vivo occupancy ED50 sc
[7] = oral administration, read-out: PDE10 in vivo occupancy ED50 po

Chain of PDE4D3 (Q08499 1-673 isoform Q08499-2): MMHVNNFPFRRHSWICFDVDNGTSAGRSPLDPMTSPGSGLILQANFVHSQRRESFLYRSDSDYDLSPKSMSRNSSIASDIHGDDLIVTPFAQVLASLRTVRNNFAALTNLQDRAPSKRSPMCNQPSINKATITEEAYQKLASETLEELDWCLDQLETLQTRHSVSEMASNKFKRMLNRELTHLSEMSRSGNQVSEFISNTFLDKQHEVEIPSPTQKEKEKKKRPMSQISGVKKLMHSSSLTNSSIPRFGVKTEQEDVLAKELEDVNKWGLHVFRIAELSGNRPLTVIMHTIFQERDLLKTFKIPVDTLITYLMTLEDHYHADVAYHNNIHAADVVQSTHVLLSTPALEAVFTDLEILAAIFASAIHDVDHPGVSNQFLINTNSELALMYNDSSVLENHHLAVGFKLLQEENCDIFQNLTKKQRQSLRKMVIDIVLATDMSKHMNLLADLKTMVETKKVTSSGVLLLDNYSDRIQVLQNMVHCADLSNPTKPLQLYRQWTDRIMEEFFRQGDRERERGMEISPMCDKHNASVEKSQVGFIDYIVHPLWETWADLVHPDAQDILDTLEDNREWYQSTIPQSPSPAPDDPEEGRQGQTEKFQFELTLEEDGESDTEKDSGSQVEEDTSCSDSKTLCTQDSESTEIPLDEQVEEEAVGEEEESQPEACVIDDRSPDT

COCCOc1ccc(-c2c(C)nc3c(-c4ccncc4)ccnn23)cn1 [compound 21, 3-[6-(2-methoxyethoxy)-3-pyridinyl]-2-methyl-8-(4-pyridinyl)-imidazo[1,2-b]pyridazine]
IC50 (PDE4D3): 28.2 µM
IC50 [1]: 47.9 µM
IC50 [2]: > 50.1 µM
IC50 [3]: > 50.1 µM
IC50 [4]: > 50.1 µM
IC50 [5]: > 50.1 µM
ED50 (PDE10; [6]): 2.6 mg/kg
receptor occupancy at 10 mg/kg (PDE10; sc): 61%
ED50 (PDE10; [7]): 14 mg/kg

COCCc1ccc(-c2c(C)nc3c(N4CCOCC4)ccnn23)cn1 [compound 1, 3-[6-(2-methoxyethyl)-3-pyridinyl]-2-methyl-8-(4-morpholinyl)-imidazo[1,2-b]pyridazine]
IC50 (PDE4D3): 30.9 µM
IC50 [1]: 39.8 µM
IC50 [2]: > 100 µM
IC50 [3]: 69.2 µM
IC50 [4]: 97.7 µM
IC50 [5]: 74.1 µM
ED50 (PDE10; [6]): 0.48 mg/kg
receptor occupancy at 10 mg/kg (PDE10; sc): 76%
ED50 (PDE10; [7]): 1.4 mg/kg
